Measured values: ChEMBL document CHEMBL1141912, “Novel beta-(imidazol-4-yl)-beta-amino acids: solid-phase synthesis and study of their inhibitory activity against geranylgeranyl protein transferase type I” (Bioorg Med Chem Lett, 2005)

Columns and labels:
Format in all cases: protein-complex assay
[1] = target: T1, Geranylgeranyl transferase type I (Homo sapiens, UniProt P49354+P53609); test: Percent inhibition of Geranylgeranyl transferase type I at 10 uM
[2] = target: T1, Geranylgeranyl transferase type I; test: Inhibition of Geranylgeranyl transferase type I
[3] = target: Protein farnesyltransferase (Homo sapiens, UniProt P49354+P49356); test: Inhibition of Farnesyltransferase

`O=C(O)CC(c1c[nH]cn1)N(CCc1cccs1)Cc1ccccn1` (centres undefined) showed an inhibition [1] of 11%.
In the case of `O=C(O)CC(c1c[nH]cn1)N(CCc1cccs1)Cc1nc[nH]n1` (centres undefined), the inhibition [1] is reported as 16%.
In the case of `O=C(O)CC(c1c[nH]cn1)N(Cc1nc[nH]n1)CC1CCCCC1` (centres undefined), the inhibition [1] is reported as 8%.
With `O=C(O)CC(c1c[nH]cn1)N(Cc1nc[nH]n1)C1CCN(Cc2ccccc2)CC1` (centres undefined) the inhibition [1] was 11%.
Work on `COC(=O)C(CC(C)C)NC(=O)c1ccc(NCC(N)CS)cc1-c1cccc2ccccc12` (centres undefined) yielded an IC50 [2] of 150 nM.
With `O=C(O)CC(c1cnc[nH]1)N(CCCCc1ccccc1)Cc1ccc(Oc2ccccc2)cc1` (centres undefined) the IC50 [2] was 860 nM.
`CCCCCCCN(Cc1ccc(Oc2ccccc2)cc1)Cc1c[nH]cn1` showed an inhibition [1] of 40%.
`CCCCOc1ccc(S(=O)(=O)N(CCc2ccc(F)cc2)C(CC(=O)O)c2cnc[nH]2)cc1` (centres undefined) showed an IC50 [2] of 1070 nM.
Compound `O=C(O)CC(c1cnc[nH]1)N(CCc1ccc(F)cc1)Cc1ccc(-c2ccccc2)cc1` (centres undefined) has an IC50 [2] of 1100 nM.
Compound `Cc1ccc(CCN(Cc2ccc(Oc3ccccc3)cc2)Cc2c[nH]cn2)cc1` has an inhibition [1] of 72%.
For `Brc1ccc(CCN(Cc2ccc3ccccc3c2)Cc2c[nH]cn2)cc1`, the inhibition [1] was 69%.
`O=C(O)CC(c1c[nH]cn1)N(CCCCCCO)Cc1c[nH]c(-c2ccccc2)n1` (centres undefined) gave an inhibition [1] of 0%.
Compound `O=C(O)CC(c1c[nH]cn1)N(CCc1ccc(F)cc1)Cc1c[nH]c(-c2ccccc2)n1` (centres undefined) has an inhibition [1] of 35%.
`O=C(O)CC(c1cnc[nH]1)N(CCc1ccc(F)cc1)Cc1ccc(Oc2ccccc2)cc1` (centres undefined) showed an IC50 [2] of 90 nM.
`Cc1ccccc1CN(Cc1ccc(C(C)(C)C)cc1)Cc1c[nH]cn1` gave an inhibition [1] of 24%.
For `CCCCCCN(Cc1nc[nH]n1)C(CC(=O)O)c1c[nH]cn1` (centres undefined), the inhibition [1] was 3%.
With `Brc1ccc(CCN(Cc2ccc(-c3ccccc3)cc2)Cc2c[nH]cn2)cc1` the inhibition [1] was 77%.
In the case of `O=C(O)CC(c1cnc[nH]1)N(CCc1cccs1)Cc1ccc(-c2ccccc2)cc1` (centres undefined), the IC50 [2] is reported as 1070 nM.
Work on `O=C(O)CC(c1c[nH]cn1)N(CC1CCCCC1)S(=O)(=O)c1cc(Cl)sc1Cl` (centres undefined) yielded an inhibition [1] of 21%.
`O=C(O)CC(c1c[nH]cn1)N(CCc1ccc(F)cc1)S(=O)(=O)c1cc(Cl)sc1Cl` (centres undefined) gave an inhibition [1] of 53%.
Compound `O=C(O)CC(NC1CCN(Cc2ccccc2)CC1)c1c[nH]cn1` (centres undefined) has an inhibition [1] of 21%.
`O=C(O)CC(c1c[nH]cn1)N(CCCc1ccccc1)Cc1cccc2ccccc12` (centres undefined) gave an inhibition [1] of 74%.
For `CCCCOc1ccc(S(=O)(=O)N(CCc2ccc(F)cc2)C(CC(=O)O)c2c[nH]cn2)cc1` (centres undefined), the inhibition [1] was 78%.
With `Brc1ccc(CCN(Cc2ccc(Oc3ccccc3)cc2)Cc2c[nH]cn2)cc1` the IC50 [2] was 256 nM, the IC50 [3] was over 10000 nM and the inhibition [1] was 88%.
`O=C(O)CC(c1c[nH]cn1)N(CCCCCCO)CC(c1ccccc1)c1ccccc1` (centres undefined) showed an inhibition [1] of 0%.
In the case of `CC(C)CCN(Cc1ccccn1)C(CC(=O)O)c1c[nH]cn1` (centres undefined), the inhibition [1] is reported as 10%.
In the case of `c1cncc(CN(Cc2c[nH]cn2)Cc2ccco2)c1`, the inhibition [1] is reported as 23%.
Compound `CCCCOc1ccc(S(=O)(=O)N(CC2CCCCC2)C(CC(=O)O)c2c[nH]cn2)cc1` (centres undefined) has an inhibition [1] of 30%.
Work on `O=C(O)CC(c1c[nH]cn1)N(CC(c1ccccc1)c1ccccc1)C1CCN(Cc2ccccc2)C1` (centres undefined) yielded an inhibition [1] of 18%.
`Fc1ccc(CCN(Cc2ccc(Oc3ccccc3)cc2)Cc2c[nH]cn2)cc1` was tested, and the IC50 [2] was 460 nM, the IC50 [3] was over 10000 nM and the inhibition [1] was 78%.
